The results in this text go back to BindingDB's records for patent US20240417410 (Hoffmann-La Roche, 2024).

pKd: −log10 of the molar value.

The assay concerns the target Peptidyl-prolyl cis-trans isomerase A (Homo sapiens, UniProt P62937). The experiment in a line: CYPA Binding Analysis by Surface Plasmon Resonance (SPR) Assay. Here is the method: All SPR experiments were conducted on a Biacore 8K+ instrument (Cytiva). Recombinant biotinylated CYPA protein with a C-terminal AVI tag was purified and immobilized on flow cell 2 of SA chip (Cytiva, BR100531), with the flow cell 1 as the blank reference. The running buffer was HBS-P+ Buffer (Cytiva, BR100827, 0.01 M HEPES pH 7.4,0.15 M NaCl, 0.05% v/v Surfactant P20), and the flow rate was 10 μL/min. The immobilization level was achieved to about 1800 response units (RU). Compounds were 3-fold serially diluted to 1.5-3333 nM using HBS-P+Buffer with a final DMSO concentration of 1.5%, and then loaded to flow through the chip surface at a rate of 30 μL/min with HBS-P+Buffer containing 1.5% DMSO as the running buffer. Experiments were performed at 25° C. The contact time and dissociation time were set to 60 s and 200 s, respectively. After binding and dissociation of each sample, the chip was regenerated using 1 M NaCl with a short contact time of 19 s at a rate of 60 μL/min. The sensorgrams were analyzed using Biacore Insight Evaluation software with 1:1 kinetics binding model to determine the association rate constant (kon), dissociation rate constant (koff) and equilibrium dissociation constant (KD).

Sequence of Peptidyl-prolyl cis-trans isomerase A (P62937 whole entry): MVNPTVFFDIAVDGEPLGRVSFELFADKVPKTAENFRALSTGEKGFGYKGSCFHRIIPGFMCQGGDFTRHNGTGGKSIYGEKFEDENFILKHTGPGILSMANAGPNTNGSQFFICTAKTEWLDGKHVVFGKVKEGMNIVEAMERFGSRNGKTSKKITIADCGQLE

The term pKd denotes the Kd on a negative log10 scale, so that one unit is a factor of ten. Higher therefore signals a low Kd. In the case of `CCn1c(-c2cc(N3CCN(C)CC3)cnc2[C@H](C)OC)c2c3cc(ccc31)-c1csc(n1)C[C@H](NC(=O)[C@H]1C[C@@H]1C)C(=O)N1CCC[C@H](N1)C(=O)OCC(C)(C)O2` [US20240417410, Example A122], the pKd was 7.52.
